Data published in PMC6597546, “Identification of a potent benzoxaborole drug candidate for treating cryptosporidiosis” (Nature Communications, 2019).
“And” between values parts separate entries of the source, which are not always exact repeats. Equal values may be shown once.

Test system: C. parvum (Bunch Grass Farms Iowa isolate)
Experiment: Neonatal calf model of cryptosporidiosis
Assay type: in vivo
Design: key to Oocyst Shedding, individual calves / Oocyst Shedding: C. parvum abundance per gram of fecal dry matter (qPCR); key to Fecal Consistency Score, individual calves / Fecal Consistency Score: score 1 = normal, 3 = severely abnormal
Procedure: All calf efficacy studies were performed as previously described. These studies were approved by the University of Vermont Institutional animal Care and Use Committee, and conducted in compliance with the USDA-APHIS “Blue Book”, available at www.aphis.usda.gov/animal-welfare. Holstein bull calves were acquired at birth from Green Mountain Dairy (Sheldon, VT), given synthetic colostrum with 200 g of IgG (Land O’Lakes, Ardent Hills, MO) and bovine coronavirus and Escherichia coli antibodies (First Defense Bolus, Immuncell Corporation, Portland, ME) within 2 h of birth, and transported to UVM. Calves were group-housed initially, and infected at 24–48 h of age during an interruption in bottle feeding by oral administration of ∼5 × 10^7 C. parvum Iowa isolate oocysts (Bunch Grass Farms, Deary, ID) suspended in 10 mL of water. They were then moved to individual raised pens, and observed twice daily at feeding times for clinical signs, which were quantified according to a previously described standardized scoring rubric. Data on fecal consistency, dehydration and overall health were collected, in each case with a score of 1 being normal and 3 being severely abnormal (scoring rubric in Supplementary Table 2). Clinical microbiologic studies for adventitious infectious agents including Salmonella culture, aerobic bacterial culture with E. coli genotyping, rotavirus, and coronavirus testing were performed on all calves at the onset of diarrhea by the Cornell Animal Health Diagnostic Center (Ithaca, NY). Animals with severe diarrhea or other symptoms were supported aggressively, including with administration of oral electrolytes, intravenous fluids and flunixin meglumine (Banamine, Merck) as needed. […] Daily fecal samples were obtained from collections bins located under each pen. Fecal samples used for parasite quantification were dried at 90 °C until stable in weight, and C. parvum abundance per gram of fecal dry matter was measured using qPCR and the primers Cp18s forward and Cp18s reverse.

[1] = 5 mg per kg twice daily oral, days 2–8
[2] = 6.67 mg/kg every 8 h for three days, Calf 1, Day 0
[3] = 6.67 mg/kg every 8 h for three days, Calf 1, Day 1
[4] = 6.67 mg/kg every 8 h for three days, Calf 1, Day 2
[5] = 6.67 mg/kg every 8 h for three days, Calf 1, Day 3
[6] = 6.67 mg/kg every 8 h for three days, Calf 1, Day 4
[7] = 6.67 mg/kg every 8 h for three days, Calf 1, Day 5
[8] = 6.67 mg/kg every 8 h for three days, Calf 1, Day 6
[9] = 6.67 mg/kg every 8 h for three days, Calf 1, Day 7
[10] = 6.67 mg/kg every 8 h for three days, Calf 1, Day 8
[11] = 6.67 mg/kg every 8 h for three days, Calf 1, Day 9
[12] = 6.67 mg/kg every 8 h for three days, Calf 1, Day 10
[13] = 6.67 mg/kg every 8 h for three days, Calf 1, Day 11
[14] = 6.67 mg/kg every 8 h for three days, Calf 1, Day 12
[15] = 6.67 mg/kg every 8 h for three days, Calf 1, Day 13
[16] = 6.67 mg/kg every 8 h for three days, Calf 1, Day 14
[17] = 6.67 mg/kg every 8 h for three days, Calf 2, Day 0
[18] = 6.67 mg/kg every 8 h for three days, Calf 2, Day 1
[19] = 6.67 mg/kg every 8 h for three days, Calf 2, Day 2
[20] = 6.67 mg/kg every 8 h for three days, Calf 2, Day 3
[21] = 6.67 mg/kg every 8 h for three days, Calf 2, Day 4
[22] = 6.67 mg/kg every 8 h for three days, Calf 2, Day 5
[23] = 6.67 mg/kg every 8 h for three days, Calf 2, Day 6
[24] = 6.67 mg/kg every 8 h for three days, Calf 2, Day 7
[25] = 6.67 mg/kg every 8 h for three days, Calf 2, Day 8
[26] = 6.67 mg/kg every 8 h for three days, Calf 2, Day 9
[27] = 6.67 mg/kg every 8 h for three days, Calf 2, Day 10
[28] = 6.67 mg/kg every 8 h for three days, Calf 2, Day 11
[29] = 6.67 mg/kg every 8 h for three days, Calf 2, Day 12
[30] = 6.67 mg/kg every 8 h for three days, Calf 2, Day 13
[31] = 6.67 mg/kg every 8 h for three days, Calf 2, Day 14
[32] = 6.67 mg/kg every 8 h for three days, Calf 3, Day 0
[33] = 6.67 mg/kg every 8 h for three days, Calf 3, Day 1
[34] = 6.67 mg/kg every 8 h for three days, Calf 3, Day 2
[35] = 6.67 mg/kg every 8 h for three days, Calf 3, Day 3
[36] = 6.67 mg/kg every 8 h for three days, Calf 3, Day 4
[37] = 6.67 mg/kg every 8 h for three days, Calf 3, Day 5
[38] = 6.67 mg/kg every 8 h for three days, Calf 3, Day 6
[39] = 6.67 mg/kg every 8 h for three days, Calf 3, Day 7
[40] = 6.67 mg/kg every 8 h for three days, Calf 3, Day 8
[41] = 6.67 mg/kg every 8 h for three days, Calf 3, Day 9
[42] = 6.67 mg/kg every 8 h for three days, Calf 3, Day 10
[43] = 6.67 mg/kg every 8 h for three days, Calf 3, Day 11
[44] = 6.67 mg/kg every 8 h for three days, Calf 3, Day 12
[45] = 6.67 mg/kg every 8 h for three days, Calf 3, Day 13
[46] = 6.67 mg/kg every 8 h for three days, Calf 3, Day 14
[47] = 10 mg per kg twice daily for 7 days begun day 4
[48] = 10 mg/kg every 12 h with delayed start, Calf 1, Day 0
[49] = 10 mg/kg every 12 h with delayed start, Calf 1, Day 1

## CC1(C)OB(O)c2cc(NC(=O)c3ccc(-n4cccn4)cc3Cl)ccc21 [AN7973]
[1]
  effect on diarrhea: completely eliminated diarrhea
  effect on parasite shedding: curtailed parasite shedding
5 mg/kg BID
  AUC for the dehydration scores, individual animals: 0
  AUC for the diarrhea scores, individual animals: 0
5 mg/kg every 12 h on days 2–8, Day 0
  Oocyst Shedding, individual calves: 100
5 mg/kg every 12 h on days 2–8, Day 1
  Oocyst Shedding, individual calves: 100 and 583
5 mg/kg every 12 h on days 2–8, Day 2
  Oocyst Shedding, individual calves: 4179 and 2794
5 mg/kg every 12 h on days 2–8, Day 3
  Oocyst Shedding, individual calves: 46248 and 34331
5 mg/kg every 12 h on days 2–8, Day 4
  Oocyst Shedding, individual calves: 68492 and 55772
5 mg/kg every 12 h on days 2–8, Day 6
  Oocyst Shedding, individual calves: 265539 and 3628
5 mg/kg every 12 h on days 2–8, Day 7
  Oocyst Shedding, individual calves: 39302 and 2599
5 mg/kg every 12 h on days 2–8, Day 8
  Oocyst Shedding, individual calves: 43202 and 100
5 mg/kg every 12 h on days 2–8, Day 9
  Oocyst Shedding, individual calves: 146 and 100
5 mg/kg every 12 h on days 2–8, Day 10
  Oocyst Shedding, individual calves: 611 and 192
6.67 mg per kg three times per day for 3 days
  effect on diarrhea: eliminated diarrhea
6.67 mg per kg three times per day for 3 days, parasitological relapse followed
  reduction of the rate of parasite shedding during treatment: ~3 log
6.67 mg/kg TID (3 days)
  AUC for the dehydration scores, individual animals: 0 and 0.3333
  AUC for the diarrhea scores, individual animals: 0 and 1.333
[2]
  Fecal Consistency Score: 1
  Oocyst Shedding: 415
[3]
  Fecal Consistency Score: 1
  Oocyst Shedding: 1163
[4]
  Fecal Consistency Score: 1
  Oocyst Shedding: 989897
[5]
  Fecal Consistency Score: 1
  Oocyst Shedding: 285174
[6]
  Fecal Consistency Score: 1
  Oocyst Shedding: 27986
[7]
  Fecal Consistency Score: 1
  Oocyst Shedding: 2214
[8]
  Fecal Consistency Score: 1
  Oocyst Shedding: 10466
[9]
  Fecal Consistency Score: 1
  Oocyst Shedding: 16062
[10]
  Fecal Consistency Score: 1
  Oocyst Shedding: 525550
[11]
  Fecal Consistency Score: 1
  Oocyst Shedding: 522608
[12]
  Fecal Consistency Score: 1
  Oocyst Shedding: 905562
[13]
  Fecal Consistency Score: 1
  Oocyst Shedding: 8303500
[14]
  Fecal Consistency Score: 1
  Oocyst Shedding: 134619
[15]
  Fecal Consistency Score: 1
  Oocyst Shedding: 473515
[16]
  Fecal Consistency Score: 1
  Oocyst Shedding: 35244
[17]
  Fecal Consistency Score: 2
  Oocyst Shedding: 1
[18]
  Fecal Consistency Score: 2
  Oocyst Shedding: 16497
[19]
  Fecal Consistency Score: 1
  Oocyst Shedding: 909
[20]
  Fecal Consistency Score: 1
  Oocyst Shedding: 179330
[21]
  Fecal Consistency Score: 1
  Oocyst Shedding: 38982
[22]
  Fecal Consistency Score: 1
  Oocyst Shedding: 6563
[23]
  Fecal Consistency Score: 1
  Oocyst Shedding: 1
[24]
  Fecal Consistency Score: 1
  Oocyst Shedding: 1
[25]
  Fecal Consistency Score: 1
  Oocyst Shedding: 1
[26]
  Fecal Consistency Score: 1
  Oocyst Shedding: 1
[27]
  Fecal Consistency Score: 1
  Oocyst Shedding: 162
[28]
  Fecal Consistency Score: 1
  Oocyst Shedding: 82
[29]
  Fecal Consistency Score: 1
  Oocyst Shedding: 1213
[30]
  Fecal Consistency Score: 1
  Oocyst Shedding: 387
[31]
  Fecal Consistency Score: 1
  Oocyst Shedding: 188
[32]
  Fecal Consistency Score: 1
  Oocyst Shedding: 1089
[33]
  Fecal Consistency Score: 1
  Oocyst Shedding: 3597
[34]
  Fecal Consistency Score: 1.33
  Oocyst Shedding: 9022387
[35]
  Fecal Consistency Score: 1.67
  Oocyst Shedding: 2560722
[36]
  Fecal Consistency Score: 1.5
  Oocyst Shedding: 582683
[37]
  Fecal Consistency Score: 1
  Oocyst Shedding: 6828
[38]
  Fecal Consistency Score: 1
  Oocyst Shedding: 54223
[39]
  Fecal Consistency Score: 1
  Oocyst Shedding: 8461
[40]
  Fecal Consistency Score: 1
  Oocyst Shedding: 2785
[41]
  Fecal Consistency Score: 1
  Oocyst Shedding: 50511
[42]
  Fecal Consistency Score: 1
  Oocyst Shedding: 198125
[43]
  Fecal Consistency Score: 1.33
  Oocyst Shedding: 100223
[44]
  Fecal Consistency Score: 1
  Oocyst Shedding: 154951
[45]
  Fecal Consistency Score: 1
  Oocyst Shedding: 141133
[46]
  Fecal Consistency Score: 1.5
  Oocyst Shedding: 78359
10 mg per kg once daily oral, days 2–8, shedding resumed and persisted
  effect on parasite shedding and diarrhea: reduced peak parasite shedding and diarrhea
[47]
  parasite shedding: abolished by day 14
  reduction of total parasite shedding: greater than 1 log
10 mg per kg twice daily for 7 days begun day 4 (peak of symptoms)
  diarrhea cured faster than in controls: 3 days
10 mg/kg BID (delayed start)
  AUC for the dehydration scores, individual animals: 0.3333 and 0 and 0.8333
  AUC for the diarrhea scores, individual animals: 1.167 and 2.333 and 2.833
10 mg/kg QD
  AUC for the dehydration scores, individual animals: 0.3333 and 0.5
  AUC for the diarrhea scores, individual animals: 2.5 and 1.833 and 2.167
[48]
  Fecal Consistency Score: 1.67
  Oocyst Shedding: 1
[49]
  Fecal Consistency Score: 2
  Oocyst Shedding: 735
